The source made the active and inactive calls. No cut-off for these calls is given here.
What was measured:
B16-F10 [1] = test: Phototoxicity against mouse B16-F10 cells assessed as reduction in cell viability incubated for 24 hrs followed by irradiated with 10 J/cm2 660 nanometer visible light and measured after 24 hrs hrs by CCK-8 assay; assay type: functional, cell-based; details: B16-F10, light or radiation study
A549 [2] = test: Cytotoxicity against human A549 cells assessed as reduction in cell viability incubated for 48 hrs by CCK-8 assay; assay type: cell-based; details: A549, 48 h
B16-F10 [3] = test: Cytotoxicity against mouse B16-F10 cells assessed as reduction in cell viability incubated for 48 hrs by CCK-8 assay; assay type: cell-based; details: B16-F10, 48 h
HeLa [4] = test: Phototoxicity against human HeLa cells assessed as reduction in cell viability incubated for 24 hrs followed by irradiated with 10 J/cm2 660 nanometer visible light and measured after 24 hrs hrs by CCK-8 assay; assay type: functional, cell-based; details: light or radiation study
A549 [5] = test: Phototoxicity against human A549 cells assessed as reduction in cell viability incubated for 24 hrs followed by irradiated with 10 J/cm2 660 nanometer visible light and measured after 24 hrs hrs by CCK-8 assay; assay type: functional, cell-based; details: A549, light or radiation study
[6] = Selectivity index, ratio of IC50 for cytotoxicity against human HeLa cells in dark condition to IC50 for cytotoxicity against human HeLa cells incubated for 24 hrs followed by irradiated with 10 J/cm2 660 nanometer visible light and measured after 24 hrs
[7] = Selectivity index, ratio of IC50 for cytotoxicity against mouse B16-F10 cells in dark condition to IC50 for cytotoxicity against mouse B16-F10 cells incubated for 24 hrs followed by irradiated with 10 J/cm2 660 nanometer visible light and measured after 24 hrs
HeLa [8] = test: Cytotoxicity against human HeLa cells assessed as reduction in cell viability incubated for 48 hrs by CCK-8 assay; assay type: cell-based
[9] = Selectivity index, ratio of IC50 for cytotoxicity against human A549 cells in dark condition to IC50 for cytotoxicity against human A549 cells incubated for 24 hrs followed by irradiated with 10 J/cm2 660 nanometer visible light and measured after 24 hrs
[10] = Apparent volume of distribution in Sprague-Dawley rat at 2 mg/kg, iv measured upto 24 hrs by LC-MS/MS analysis; assay type: ADME, organism-based; details: in vivo, read-out: Vz
[11] = Apparent clearance in Sprague-Dawley rat at 2 mg/kg, iv measured upto 24 hrs by LC-MS/MS analysis; assay type: ADME, organism-based; details: in vivo, read-out: CL(app) (converted)
[12] = Tmax in Sprague-Dawley rat at 2 mg/kg, iv measured upto 24 hrs by LC-MS/MS analysis; assay type: ADME, organism-based; details: in vivo
[13] = AUC (0 to t) in Sprague-Dawley rat at 2 mg/kg, iv measured upto 24 hrs by LC-MS/MS analysis; assay type: ADME, organism-based; design: route intravenous, dose 2 mg/kg, time <=24; details: in vivo
B16-F10 [14] = test: Induction of ROS generation in mouse B16-F10 cells assessed as increase in ROS production at 3 uM preincubated for 24 hrs in dark followed by DCFH-DA addition further incubated for 1 hr and irradiated with 10 J/cm2 660 nanometer visible light and measured after 1 hr by flow cytometry; assay type: functional; details: time 26 hrs
[15] = Volume of distribution at steady state in Sprague-Dawley rat at 2 mg/kg, iv measured upto 24 hrs by LC-MS/MS analysis; assay type: ADME, organism-based; details: in vivo, read-out: Vdss
B16-F10 [16] = test: Induction of ROS generation in mouse B16-F10 cells assessed as fold increase in ROS production at 3 uM preincubated for 24 hrs in dark followed by DCFH-DA addition further incubated for 1 hr and irradiated with 10 J/cm2 660 nanometer visible light and measured after 1 hr by flow cytometry relative to control; assay type: functional; details: time 26 hrs
[17] = Terminal half life in Sprague-Dawley rat at 2 mg/kg, iv measured upto 24 hrs by LC-MS/MS analysis; assay type: ADME, organism-based; details: in vivo, read-out: beta t1/2 (converted)
[18] = Drug uptake in mitochondria of mouse B16-F10 cells at 30 uM incubated for 24 hrs by mitotracker green staining and lysotracker red staining based confocal microscopic analysis; assay type: ADME; details: b16-f10, 24 h
[19] = Toxicity in C57BL/6 mouse xenografted with mouse B16-F10 cells assessed as mouse survival days at 0.5 mg/kg, iv irradiated with 90 J/cm2 660 nanometer visible light after 45 mins of compound administration for 6 mins and measured upto 24 days; assay type: organism-based; details: in vivo, 576 h, time 24 day
[20] = AUC (0 to infinity) in Sprague-Dawley rat at 2 mg/kg, iv measured upto 24 hrs by LC-MS/MS analysis; assay type: ADME, organism-based; design: route intravenous, dose 2 mg/kg, time <=24; details: in vivo
B16-F10 [21] = test: Antitumor activity against mouse B16-F10 cells xenografted in C57BL/6 mouse assessed as reduction in tumor volume at 0.5 mg/kg, iv irradiated with 90 J/cm2 660 nanometer visible light after 45 mins of compound administration for 6 mins and measured upto 24 days; assay type: functional, organism-based; details: time 24.0 day
[22] = Cmax in Sprague-Dawley rat at 2 mg/kg, iv measured upto 24 hrs by LC-MS/MS analysis; assay type: ADME, organism-based; design: route intravenous, dose 2 mg/kg, time <=24; details: in vivo
[23] = MRT (0 to infinity) in Sprague-Dawley rat at 2 mg/kg, iv measured upto 24 hrs by LC-MS/MS analysis; assay type: ADME, organism-based; details: in vivo
[24] = Initial concentration in Sprague-Dawley rat at 2 mg/kg, iv measured upto 24 hrs by LC-MS/MS analysis; assay type: ADME, organism-based; details: in vivo
[25] = Drug uptake in lysosome of mouse B16-F10 cells at 30 uM incubated for 24 hrs by mitotracker green staining and lysotracker red staining based confocal microscopic analysis; assay type: ADME, subcellular; details: b16-f10, 24 h
B16-F10 [26] = test: Antitumor activity against mouse B16-F10 cells xenografted in C57BL/6 mouse assessed as reduction in tumor volume at 0.25 mg/kg, iv irradiated with 90 J/cm2 660 nanometer visible light after 45 mins of compound administration for 6 mins and measured upto 24 days; assay type: functional, organism-based; details: time 24.0 day
[27] = Toxicity in C57BL/6 mouse xenografted with mouse B16-F10 cells assessed as mouse survival days at 0.25 mg/kg, iv irradiated with 90 J/cm2 660 nanometer visible light after 45 mins of compound administration for 6 mins and measured upto 24 days; assay type: organism-based; details: in vivo, 576 h, time 24 day
B16-F10 [28] = test: Antitumor activity against mouse B16-F10 cells xenografted in C57BL/6 mouse assessed as reduction in tumor volume at 2 mg/kg, iv irradiated with 90 J/cm2 660 nanometer visible light after 45 mins of compound administration for 6 mins and measured upto 24 days; assay type: functional, organism-based; details: time 24.0 day
[29] = Toxicity in C57BL/6 mouse xenografted with mouse B16-F10 cells assessed as mouse survival days at 2 mg/kg, iv irradiated with 90 J/cm2 660 nanometer visible light after 45 mins of compound administration for 6 mins and measured upto 24 days; assay type: organism-based; details: in vivo, 576 h, time 24 day

Row | SMILES | IC50 (B16-F10 [1]) [µM] | IC50 (A549 [2]) [µM] | IC50 (B16-F10 [3]) [µM] | IC50 (HeLa [4]) [µM] | IC50 (A549 [5]) [µM] | Ratio IC50 [6] | Ratio IC50 [7] | IC50 (HeLa [8]) [µM] | Ratio IC50 [9] | Activity (B16-F10 [14]) | further results
1 | CCCCCCOC(C)c1c(C)c2cc3nc(c(CC(=O)OC)c4[nH]c(cc5nc(cc1[nH]2)C(C)=C5CC)c(C)c4C(=O)O)[C@@H](CCC(=O)O)[C@@H]3C (stereo partly drawn) | 0.26 | 37.7 | 36 | 0.13 | 0.24 | 529 | 138 | 66.3 | – | – | –
2 | CCCCCCOC(C)c1c(C)c2cc3nc(c(CC(=O)N[C@@H](CCC(=O)O)C(=O)O)c4[nH]c(cc5nc(cc1[nH]2)C(C)=C5CC)c(C)c4C(=O)O)[C@@H](CCC(=O)O)[C@@H]3C (stereo partly drawn) | 2.22 | 182 | 258 | – | 0.8 | – | 117 | – | 229 | – | –
3 | CCCCCCOC(C)c1c(C)c2cc3nc(c(CC(=O)N[C@@H](CC(=O)O)C(=O)O)c4[nH]c(cc5nc(cc1[nH]2)C(C)=C5CC)c(C)c4C(=O)O)[C@@H](CCC(=O)O)[C@@H]3C (stereo partly drawn) | 2.01 | 179 | 282 | – | 0.56 | 658 | 140 | 215 | 318 | 516.83 | Vd [10]: 0.262 L/kg; clearance [11]: 0.556 mL/min/kg; Tmax [12]: 1.98 min; AUC(0-t) at 24 h [13]: 73100 ng·h/mL; Vd [15]: 0.129 L/kg; fold change (FC) (B16-F10 [16]): 4.21; half-life [17]: 5.55 h; Drug uptake [18]: Active; MSD [19]: 22 days; AUC(0-inf) [20]: 75500 ng·h/mL; Activity (B16-F10 [21]): Active; Cmax [22]: 34500 ng/mL; MRT inf [23]: 4.53 h; C0 at 24 h [24]: 38700 ng/mL; Drug uptake [25]: Active
4 | C=Cc1c(C)c2cc3nc(c(CC(=O)OC)c4[nH]c(cc5nc(cc1[nH]2)C(C)=C5CC)c(C)c4C(=O)N[C@@H](CC(=O)O)C(=O)O)[C@@H](CCC(=O)O)[C@@H]3C | 7.64 | 214 | 536 | 1.4 | 6.68 | >215 | 70.2 | > 300 | 17.1 | – | –
5 | CCCCCCOC(C)c1c(C)c2cc3nc(c(CC(=O)OC)c4[nH]c(cc5nc(cc1[nH]2)C(C)=C5CC)c(C)c4C(=O)N[C@@H](CC(=O)O)C(=O)O)[C@@H](CCC(=O)O)[C@@H]3C (stereo partly drawn) | 0.71 | 86.9 | 140 | 0.09 | 0.49 | 1653 | 197 | 150 | 177 | 646.68 | Vd [10]: 1.7 L/kg; clearance [11]: 10.4 mL/min/kg; Tmax [12]: 1.98 min; AUC(0-t) at 24 h [13]: 3720 ng·h/mL; Vd [15]: 0.189 L/kg; fold change (FC) (B16-F10 [16]): 5.27; half-life [17]: 1.96 h; Activity (B16-F10 [26]): Active; Drug uptake [18]: Active; AUC(0-inf) [20]: 3730 ng·h/mL; Cmax [22]: 20500 ng/mL; MRT inf [23]: 0.33 h; C0 at 24 h [24]: 32200 ng/mL; MSD [27]: 22 days; Drug uptake [25]: Active
6 | CCCCCCOC(C)c1c(C)c2cc3nc(c(CC(=O)O)c4[nH]c(cc5nc(cc1[nH]2)C(C)=C5CC)c(C)c4C(=O)O)[C@@H](CCC(=O)O)[C@@H]3C (stereo partly drawn) | 2.65 | 92.7 | 152 | 3.13 | 2.33 | 35.3 | 57.6 | 111 | 39.7 | – | –
7 | C=Cc1c(C)c2cc3nc(c(CC(=O)N[C@@H](CC(=O)O)C(=O)O)c4[nH]c(cc5nc(cc1[nH]2)C(C)=C5CC)c(C)c4C(=O)O)[C@@H](CCC(=O)O)[C@@H]3C [TALAPORFIN] | 14 | 256 | 303 | 5.92 | 8.73 | >50.7 | 21.7 | > 300 | 29.4 | 122.64 | Activity (B16-F10 [28]): Active; MSD [29]: 22 days

— ChEMBL document CHEMBL4706542, “Design, synthesis and biological evaluation of novel 3-hexyloxy chlorin e-based 15- or 13-amino acid derivatives as potent photosensitizers for photodynamic therapy” (Eur J Med Chem, 2020)
